Data published in article PMC10511417, “Salmonid polysialyltransferases to generate a variety of sialic acid polymers” (Scientific Reports, 2023).

Test system: T1, CmaST8Sia IV (CmaΔ28ST8Sia IV; fish ST8Sia IV)
T1 construct: gene st8sia4; soluble Δ28 form lacking the first 28 residues (cytoplasmic tail and transmembrane domain), N-terminal 3xFLAG (p3×FLAG-CMV9), secreted by HEK293 cells; crude culture medium; ~52 kDa N-glycosylated; cDNA cloned from C. maraena with 1074 bp amplicon; printed XM_041897387 is Coregonus clupeaformis homologue
Assay: MicroPlate Sialyltransferase Assay (click biotinylation, anti-biotin-HRP), Michaelis-Menten fit
Assay type: biochemical, Coregonus maraena
Details: acceptor CD166/ALCAM 400 ng; cacodylate buffer pH 6.4, 27 °C, 4 h; 0-100 µM donor; crude culture medium as enzyme; read-out: apparent Km

Km: 17.6 ± 2.52 µM
Structure (SMILES): C#CCCC(=O)N[C@H]1[C@H]([C@H](O)[C@H](O)CO)OC(OP(=O)(O)OC[C@H]2O[C@@H](n3ccc(N)nc3=O)[C@H](O)[C@@H]2O)(C(=O)O)C[C@@H]1O (stereo partly shown) [CMP-SiaNAl]
